Data reported in patent US20040234610A1, “Medical device and method for inhalation of aerosolized drug with heliox” (priority 2001, published 2004).

Assay: Nebulized particle size distribution by Anderson Cascade Impactor, Y design, drug suspension and different heliox flow rates
Format: physicochemical
Procedure: Additional tests were performed with the ACI described in Example 3 in order to assess the device's ability to nebulize a liquid drug suspension and to assess various heliox flow rate combinations. […]

[1] = 6-6 lpm heliox (nebulizer-side port)
[2] = 10-10 lpm heliox (nebulizer-side port)
[3] = 10-18 lpm heliox (nebulizer-side port)
[4] = 18-0 lpm heliox (nebulizer-side port)
[5] = 18-10 lpm heliox (nebulizer-side port)
[6] = trial 6-6: heliox 6 L/min nebulizer, 6 L/min side port
[7] = trial 10-10: heliox 10 L/min nebulizer, 10 L/min side port
[8] = trial 10-18: heliox 10 L/min nebulizer, 18 L/min side port
[9] = trial 18-0: heliox 18 L/min nebulizer, 0 L/min side port
[10] = trial 18-10: heliox 18 L/min nebulizer, 10 L/min side port

CC(C)(C)NCC(O)c1ccc(O)c(CO)c1 (centres unmarked) [albuterol]
0.7 ≦ Mean Fraction < 5.8 μm [1]: 0.755 | Mean Fraction < 0.7 μm [1]: 0.112 | Mean Fraction ≧ 5.8 μm [1]: 0.134 | 0.7 ≦ Mean Fraction < 5.8 μm [2]: 0.773 | Mean Fraction < 0.7 μm [2]: 0.159 | Mean Fraction ≧ 5.8 μm [2]: 0.068 | 0.7 ≦ Mean Fraction < 5.8 μm [3]: 0.626 | Mean Fraction < 0.7 μm [3]: 0.306 | Mean Fraction ≧ 5.8 μm [3]: 0.068 | 0.7 ≦ Mean Fraction < 5.8 μm [4]: 0.658 | Mean Fraction < 0.7 μm [4]: 0.224 | Mean Fraction ≧ 5.8 μm [4]: 0.118 | 0.7 ≦ Mean Fraction < 5.8 μm [5]: 0.609 | Mean Fraction < 0.7 μm [5]: 0.317 | Mean Fraction ≧ 5.8 μm [5]: 0.075 | Fraction, Adapter [6]: 0.033 | Fraction, Collar [6]: 0.034 | Fraction, Filter (cut size <0.40 μm) [6]: 0.045 | Fraction, Stage 0 (cut size 9.00 μm, midpt 10.70 μm) [6]: 0.023 | Fraction, Stage 1 (cut size 5.80 μm, midpt 7.22 μm) [6]: 0.015 | Fraction, Stage 2 (cut size 4.70 μm, midpt 5.22 μm) [6]: 0.013 | Fraction, Stage 3 (cut size 3.30 μm, midpt 3.94 μm) [6]: 0.042 | Fraction, Stage 4 (cut size 2.10 μm, midpt 2.63 μm) [6]: 0.171 | Fraction, Stage 6 (cut size 0.70 μm, midpt 0.88 μm) [6]: 0.130 | Fraction, Stage 7 (cut size 0.40 μm, midpt 0.53 μm) [6]: 0.067 | Fraction, Tee Piece [6]: 0.015 | Fraction, Throat (USP) (cut size >9.00 μm, midpt 24.49 μm) [6]: 0.013 | Fraction, Adapter [7]: 0.018 | Fraction, Collar [7]: 0.018 | Fraction, Filter (cut size <0.40 μm) [7]: 0.053 | Fraction, Stage 0 (cut size 9.00 μm, midpt 10.70 μm) [7]: 0.012 | Fraction, Stage 1 (cut size 5.80 μm, midpt 7.22 μm) [7]: 0.011 | Fraction, Stage 2 (cut size 4.70 μm, midpt 5.22 μm) [7]: 0.002 | Fraction, Stage 4 (cut size 2.10 μm, midpt 2.63 μm) [7]: 0.171 | Fraction, Stage 6 (cut size 0.70 μm, midpt 0.88 μm) [7]: 0.202 | Fraction, Stage 7 (cut size 0.40 μm, midpt 0.53 μm) [7]: 0.106 | Fraction, Tee Piece [7]: 0.009 | Fraction, Throat (USP) (cut size >9.00 μm, midpt 24.49 μm) [7]: 0.002 | Fraction, Adapter [8]: 0.015 | Fraction, Collar [8]: 0.011 | Fraction, Filter (cut size <0.40 μm) [8]: 0.113 | Fraction, Stage 0 (cut size 9.00 μm, midpt 10.70 μm) [8]: 0.011 | Fraction, Stage 1 (cut size 5.80 μm, midpt 7.22 μm) [8]: 0.006 | Fraction, Stage 2 (cut size 4.70 μm, midpt 5.22 μm) [8]: 0.007 | Fraction, Stage 3 (cut size 3.30 μm, midpt 3.94 μm) [8]: 0.008 | Fraction, Stage 4 (cut size 2.10 μm, midpt 2.63 μm) [8]: 0.077 | Fraction, Stage 6 (cut size 0.70 μm, midpt 0.88 μm) [8]: 0.232 | Fraction, Stage 7 (cut size 0.40 μm, midpt 0.53 μm) [8]: 0.192 | Fraction, Tee Piece [8]: 0.024 | Fraction, Throat (USP) (cut size >9.00 μm, midpt 24.49 μm) [8]: 0.001 | Fraction, Adapter [9]: 0.027 | Fraction, Collar [9]: 0.011 | Fraction, Filter (cut size <0.40 μm) [9]: 0.088 | Fraction, Stage 0 (cut size 9.00 μm, midpt 10.70 μm) [9]: 0.026 | Fraction, Stage 1 (cut size 5.80 μm, midpt 7.22 μm) [9]: 0.047 | Fraction, Stage 2 (cut size 4.70 μm, midpt 5.22 μm) [9]: 0.013 | Fraction, Stage 3 (cut size 3.30 μm, midpt 3.94 μm) [9]: 0.029 | Fraction, Stage 4 (cut size 2.10 μm, midpt 2.63 μm) [9]: 0.124 | Fraction, Stage 6 (cut size 0.70 μm, midpt 0.88 μm) [9]: 0.184 | Fraction, Stage 7 (cut size 0.40 μm, midpt 0.53 μm) [9]: 0.137 | Fraction, Tee Piece [9]: 0.005 | Fraction, Throat (USP) (cut size >9.00 μm, midpt 24.49 μm) [9]: 0.002 | Fraction, Adapter [10]: 0.009 | Fraction, Collar [10]: 0.012 | Fraction, Filter (cut size <0.40 μm) [10]: 0.106 | Fraction, Stage 0 (cut size 9.00 μm, midpt 10.70 μm) [10]: 0.011 | Fraction, Stage 1 (cut size 5.80 μm, midpt 7.22 μm) [10]: 0.026 | Fraction, Stage 2 (cut size 4.70 μm, midpt 5.22 μm) [10]: 0.006 | Fraction, Stage 3 (cut size 3.30 μm, midpt 3.94 μm) [10]: 0.016 | Fraction, Stage 4 (cut size 2.10 μm, midpt 2.63 μm) [10]: 0.066 | Fraction, Stage 6 (cut size 0.70 μm, midpt 0.88 μm) [10]: 0.207 | Fraction, Stage 7 (cut size 0.40 μm, midpt 0.53 μm) [10]: 0.211 | Fraction, Tee Piece [10]: 0.016 | Fraction, Throat (USP) (cut size >9.00 μm, midpt 24.49 μm) [10]: 0.001
